From the NIST ThermoML archive (doi:10.1016/j.tca.2004.11.001)

Test: molar heat capacity at constant pressure; xn = mol fraction of the nth substance listed
Settings: 101.33 kPa, Liquid

CCCCCCOCCOCCOCCOCCOCCO [2-(hexyloxytetraethoxy)ethanol] + O
molar heat capacity at constant pressure [J/K/mol]
Settings	283 K	288 K	298 K	308 K	318 K	328 K	338 K
x1 = 0.00036	75.88	75.76	75.66	75.64	75.68	75.77	75.85
x1 = 0.00072	76.25	76.13	76.04	76.03	76.07	76.14	76.23
x1 = 0.00106	76.6	76.5	76.43	76.42	76.46	76.53	76.6
x1 = 0.00146	77.04	76.94	76.92	76.95	76.95	76.93	76.96
x1 = 0.00175	77.35	77.33	77.41	77.35	77.25	77.18	77.19
x1 = 0.0018	77.46	77.42	77.48	77.44	77.35	77.28	77.3
x1 = 0.00235	78.13	78.25	78.2	78.06	77.88	77.81	77.83
x1 = 0.00281	78.98	78.99	78.74	78.45	78.27	78.21	78.27
x1 = 0.00324	79.99	79.7	79.24	78.86	78.68	78.63	78.61
x1 = 0.00357	80.51	80.06	79.53	79.18	78.99	78.93	78.99
x1 = 0.00398	81	80.46	79.78	79.43	79.29	79.25	79.27
x1 = 0.00473	81.76	81.26	80.57	80.19	80.01	79.95	79.97
x1 = 0.00503	82.06	81.55	80.85	80.47	80.3	80.24	80.25
x1 = 0.00543	82.41	81.91	81.22	80.85	80.67	80.61	80.57
x1 = 0.00585	82.79	82.27	81.58	81.22	81.05	80.99	81.01
x1 = 0.0063	83.1	82.58	81.9	81.54	81.37	81.31	81.32
x1 = 0.0069	83.54	83.03	82.38	82.04	81.89	81.82	81.83
x1 = 0.00752	84.02	83.53	82.92	82.62	82.49	82.43	82.46
x1 = 0.00819	84.48	84.03	83.46	83.18	83.06	83.02	83.06
x1 = 0.00886	85	84.56	84.02	83.75	83.64	83.61	83.65
x1 = 0.00969	85.51	85.11	84.64	84.42	84.35	84.37	84.46
x1 = 0.0118	87.08	86.76	86.37	86.21	86.16	86.19	86.22
x1 = 0.01312	88	87.75	87.46	87.33	87.3	87.32	87.37
x1 = 0.01647	90.68	90.57	90.49	90.48	90.51	90.58	90.44
x1 = 0.01786	91.44	91.39	91.36	91.4	91.49	91.6	91.72
x1 = 0.01996	92.94	92.97	93.07	93.17	93.26	93.31	93.32
x1 = 0.02247	94.73	94.84	95.04	95.24	95.42	95.55	95.59
x1 = 0.02729	98.3	98.56	99	99.32	99.54	99.68	99.81
x1 = 0.0303	100.51	100.88	101.48	101.9	102.19	102.38	102.52
x1 = 0.03518	103.98	104.48	105.27	105.84	106.24	106.51	106.68
x1 = 0.0397	107.24	107.83	108.77	109.44	109.93	110.24	110.48
x1 = 0.04518	111.01	111.69	112.79	113.6	114.17	114.53	114.82
x1 = 0.05201	115.67	116.48	117.75	118.68	119.37	119.87	120.21
x1 = 0.06018	121.38	122.34	123.83	124.98	125.84	126.57	126.88
x1 = 0.07563	131.77	132.81	134.56	135.97	137.1	137.96	138.56
x1 = 0.09777	146.15	147.28	149.31	151.06	152.51	153.69	154.59
x1 = 0.1356	170.77	171.98	174.29	176.42	178.34	180.03	181.46
x1 = 0.1978	210.08	211.39	213.91	216.46	218.95	221.31	223.41
x1 = 0.3066	278.42	279.68	282.35	285.3	288.41	291.49	294.37
x1 = 0.6924	513.75	515.35	519.97	524.59	529.47	534.66	538.64
x1 = 1	686.95	689.21	693.95	698.98	704.91	711.23	716.97

O [water] + CCCCCCOCCOCCOCCOCCOCCO
x2 = 0
Settings	molar heat capacity at constant pressure [J/K/mol]
283 K	75.53
288 K	75.41
298 K	75.3
308 K	75.28
318 K	75.3
328 K	75.35
338 K	75.43
